The text below walks through data of paper PMC3296825 (Nature medicine, 2012).

In assay [1] the target is fast skeletal troponin complex (Oryctolagus cuniculus, UniProt P02586+P02643). The experiment in a line: isothermal titration calorimetry. It is filed as binding.
The next assay concerns the target slow skeletal troponin (Bos taurus, UniProt G3MYN5+P63315). The experiment in a line: isothermal titration calorimetry. It is filed as binding. Background: Isothermal titration calorimetry measures the heat released or taken up as one component is titrated into another.

Chain of fast skeletal troponin complex (P02586 2-160): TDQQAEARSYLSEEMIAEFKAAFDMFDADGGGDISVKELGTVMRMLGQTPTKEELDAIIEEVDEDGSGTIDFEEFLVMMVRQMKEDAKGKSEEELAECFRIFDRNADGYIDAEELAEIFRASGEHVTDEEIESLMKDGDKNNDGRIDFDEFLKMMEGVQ
Chain of fast skeletal troponin complex (P02643 2-182): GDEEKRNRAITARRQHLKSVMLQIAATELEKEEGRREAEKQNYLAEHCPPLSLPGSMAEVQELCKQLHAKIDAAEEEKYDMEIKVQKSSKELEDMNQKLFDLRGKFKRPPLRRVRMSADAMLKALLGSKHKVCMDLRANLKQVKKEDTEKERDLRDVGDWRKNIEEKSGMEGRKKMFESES
Chain of fast skeletal troponin complex (P02641 2-279 partner): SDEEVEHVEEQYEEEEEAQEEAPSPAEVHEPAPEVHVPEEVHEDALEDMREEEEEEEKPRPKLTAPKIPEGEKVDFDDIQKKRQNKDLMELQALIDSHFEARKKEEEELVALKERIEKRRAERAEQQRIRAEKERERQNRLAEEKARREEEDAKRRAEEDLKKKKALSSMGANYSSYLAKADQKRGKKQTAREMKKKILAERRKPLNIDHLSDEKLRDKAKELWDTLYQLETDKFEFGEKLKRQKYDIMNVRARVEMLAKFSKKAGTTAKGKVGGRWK

For the compound `C#Cc1cnc2nc(O)n(C(CC)CC)c2n1` [CK-2017357], the Kd – broadly, the equilibrium constant for the complex coming apart – in assay [1] was found to be 40 ± 6 nM; on slow skeletal troponin it was 3800 ± 700 nM.
